In patent US10392422B2, “Macrocyclic broad spectrum antibiotics” (priority 2014, dated 2019):
≈ marks a conversion by molar mass, not a printed value. Where two headings read alike, the source gives them in different places.

How the values were obtained:
Test in all cases: MIC, broth micro-dilution technique (CLSI)
MRSA COL (NRS100) = assay type: cell-based, Staphylococcus aureus; settings: for MIC: Staphylococcus aureus, 22 h, read-out: MIC (μg/mL) (COL)
Experimental: (§1) In vitro antimicrobial activity of each compound was determined by measuring minimal inhibitor concentrations (MICs) using the broth micro-dilution technique as approved by the Clinical and Laboratory Standards Institute (CLSI) (Methods for Dilution Antimicrobial Susceptibility Tests for Bacteria that Grow Aerobically; Approved Standard—Eighth Edition. CLSI document M07-A8. Wayne, Pa.: Clinical and Laboratory Standards; 2009). Antibacterial activity was measured against three strains of bacteria: a Methicillin Resistant Staphylococcus aureus strain USA 300 (NRS384); a MRSA COL (NRS100), another Methicillin Resistant Staphylococcus aureus strain; and a strain of Escherichia coli MC4100 harboring the IMP4213, which results in increased outer-membrane permeability (B Martin and Silhavy T. Imp/OstA is required for cell envelope biogenesis in Escherichia coli. (2002) Molecular Microbiology, 45(5), 1289-1302). Cells were inoculated onto plates of Trypyticase Soy Agar or Luria Agar respectively and grown at 35° C. for 20 hours. Inocula suspensions were prepared by scraping cells into 1 ml of testing media (cation adjusted Mueller Hinton Broth supplemented with 0.002% v/v Tween-80) and diluting to a final OD600 nm of 0.01.
(§2) Test compounds were prepared in DMSO at a concentration of 10 mg/ml. These compound stocks were diluted into testing media at a concentration of 64 μg/ml and serial 2-fold dilutions were made in the same media, in 96-well U bottom microtiter dishes, for a total of 10 compound concentrations (Table 1). In modified protocols (Table 2), compound stocks were diluted into testing media at a concentration of 4 μg/mL and serial 2-fold dilutions were made in the same media, in 96-well U bottom microtiter dishes, for a total of 10 compound concentrations. Inocula suspensions were added to the 2-fold serial dilutions of test compounds to a final density of OD OD600 nm of 0.0005 and incubated at 35° C. for 22 hours. […] The results from the protocol starting from a concentration of 64 µg/mL are listed in Table 1 and the results from the modified protocol are shown in Table 2.

[1] = tested on: Escherichia coli MC4100 harboring the IMP4213; assay type: cell-based; settings: for MIC: Escherichia coli, 22 h; for MIC (μg/mL) E. coli: Table 1 protocol: serial 2-fold dilutions starting from 64 μg/ml
Experimental: as §1, §2

[2] = tested on: Methicillin Resistant Staphylococcus aureus strain USA 300 (NRS384); assay type: cell-based; settings: for MIC: Staphylococcus aureus, 22 h, read-out: MIC (μg/mL) S. aureus
Experimental: as §1, §2

[3] = read-out: MIC (μg/mL) E. coli, Table 1 protocol: serial 2-fold dilutions starting from 64 μg/ml, 35° C., 22 hours
[4] = Table 1 protocol: serial 2-fold dilutions starting from 64 μg/ml, 35° C., 22 hours

With C[C@@H]1NC(=O)[C@@H](N(C)C(=O)[C@H](CCCCN)NC(=O)c2ccc(-c3ccc(Cl)cc3)cc2)c2ccc(O)c(c2)-c2cc(ccc2O)C[C@@H](C(=O)N[C@@H](C)/C=C/S(C)(=O)=O)NC1=O [Compound 144] the MIC (MRSA COL (NRS100)) was 2 µg/mL (≈ 2.25 µM), the MIC [1, 3] was 32 µg/mL (≈ 36.1 µM) and the MIC [2] was 8 µg/mL (≈ 9.01 µM).
In the case of C[C@@H]1NC(=O)[C@@H](N(C)C(=O)[C@H](CCCCN)NC(=O)c2ccc(-c3ccc(Cl)cc3)cc2)c2ccc(O)c(c2)-c2cc(ccc2O)C[C@@H](C(=O)N[C@@H](C)/C=C\S(C)(=O)=O)NC1=O [Compound 145], the MIC (MRSA COL (NRS100)) is reported as 64 µg/mL (≈ 72.1 µM), the MIC [1, 3] is reported as > 64 µg/mL and the MIC [2] is reported as > 64 µg/mL.
With C[C@H](NC(=O)CCC(=O)[C@H](C)NC(=O)[C@@H]1Cc2ccc(O)c(c2)-c2cc(ccc2O)[C@H](N(C)C(=O)[C@H](CCCCN)NC(=O)c2ccc(-c3ccc(Cl)cc3)cc2)C(=O)N[C@@H](C)C(=O)N1)C(=O)O [Compound 147] the MIC (MRSA COL (NRS100)) was > 64 µg/mL, the MIC [1, 3] was > 64 µg/mL and the MIC [2] was > 64 µg/mL.
For CNC(=O)CCC(=O)[C@H](C)NC(=O)[C@@H]1Cc2ccc(O)c(c2)-c2cc(ccc2O)[C@H](N(C)C(=O)[C@H](CCCCN)NC(=O)c2ccc(-c3ccc(Cl)cc3)cc2)C(=O)N[C@@H](C)C(=O)N1 [Compound 149], the MIC (MRSA COL (NRS100); [4]) was 64 µg/mL (≈ 71.4 µM), the MIC [1, 3] was 64 µg/mL (≈ 71.4 µM) and the MIC [2, 4] was > 64 µg/mL.
In the case of C[C@@H]1NC(=O)[C@@H](N(C)C(=O)[C@H](CCCCN)NC(=O)c2ccc(-c3ccc(Cl)cc3)cc2)c2ccc(O)c(c2)-c2cc(ccc2O)C[C@@H](C(=O)N[C@@H](C)C(=O)C(F)(F)C(=O)O)NC1=O [Compound 152], the “MIC (μg/mL) (COL)” value (MRSA COL (NRS100); [4]) is reported as 4 µg/mL (≈ 4.42 µM), the “MIC (μg/mL) E. coli” value ([1]; 35° C., 22 hours) is reported as 16 µg/mL (≈ 17.7 µM) and the “MIC (μg/mL) S. aureus” value [2, 4] is reported as 10 µg/mL (≈ 11 µM).
Work on C[C@@H]1NC(=O)[C@@H](N(C)C(=O)[C@H](CCCCN)NC(=O)c2ccc(-c3ccc(Cl)cc3)cc2)c2ccc(O)c(c2)-c2cc(ccc2O)C[C@@H](C(=O)N[C@@H](C)C(=O)N(C)[C@@H](CC(=O)O)C(N)=O)NC1=O [Compound 158] yielded an MIC (MRSA COL (NRS100)) of 8 µg/mL (≈ 8.37 µM), an MIC [1, 3] of 64 µg/mL (≈ 67 µM) and an MIC [2] of 23 µg/mL (≈ 24.1 µM).
For C[C@@H]1NC(=O)[C@@H](N(C)C(=O)[C@H](CCCCN)NC(=O)c2ccc(-c3ccc(Cl)cc3)cc2)c2ccc(O)c(c2)-c2cc(ccc2O)C[C@@H](C(=O)N[C@@H](C)C(=O)N(C)[C@@H](CCC(=O)O)C(N)=O)NC1=O [Compound 159], the MIC (MRSA COL (NRS100); [4]) was 8 µg/mL (≈ 8.25 µM), the MIC [1, 3] was 32 µg/mL (≈ 33 µM) and the MIC [2, 4] was 23 µg/mL (≈ 23.7 µM).
With C[C@@H]1NC(=O)[C@@H](N(C)C(=O)[C@H](CCCCN)NC(=O)c2ccc(-c3ccc(Cl)cc3)cc2)c2ccc(O)c(c2)-c2cc(ccc2O)C[C@@H](C(=O)N[C@@H](C)C(=O)N2CCCC23CCNC3=O)NC1=O (stereo partly drawn) [Compound 160] the MIC (MRSA COL (NRS100); [4]) was > 64 µg/mL, the MIC [1, 3] was 64 µg/mL (≈ 67.4 µM) and the MIC [2, 4] was > 64 µg/mL.
For C[C@@H]1NC(=O)[C@@H](N(C)C(=O)[C@H](CCCCN)NC(=O)c2ccc(-c3ccc(Cl)cc3)cc2)c2ccc(O)c(c2)-c2cc(ccc2O)C[C@@H](C(=O)N[C@@H](C)C(=O)N2CCCC23CCNC3=O)NC1=O (stereo partly drawn) [Compound 161], the “MIC (μg/mL) (COL)” value (MRSA COL (NRS100); [4]) was 32 µg/mL (≈ 33.7 µM), the “MIC (μg/mL) E. coli” value ([1]; 35° C., 22 hours) was 64 µg/mL (≈ 67.4 µM) and the “MIC (μg/mL) S. aureus” value [2, 4] was 64 µg/mL (≈ 67.4 µM).
C[C@H](NC(=O)[C@@H]1Cc2ccc(O)c(c2)-c2cc(ccc2O)[C@H](N(C)C(=O)[C@H](CCCCN)NC(=O)c2ccc(-c3ccc(Cl)cc3)cc2)C(=O)N[C@@H](C)C(=O)N1)C(=O)CNS(C)(=O)=O [Compound 162] was tested, and the MIC (MRSA COL (NRS100)) was 2 µg/mL (≈ 2.18 µM), the MIC [1, 3] was 32 µg/mL (≈ 34.8 µM) and the MIC [2] was 8 µg/mL (≈ 8.71 µM).
Molecule CCCCCCCCCCNCCS(=O)(=O)N[C@@H](CCCCN)C(=O)N(C)[C@@H]1C(=O)N[C@@H](C)C(=O)N[C@H](C(=O)N[C@@H](C)C(C)=O)Cc2ccc(O)c(c2)-c2cc1ccc2O [Compound 163] has an MIC (MRSA COL (NRS100); [4]) of 0.11 µg/mL (≈ 0.128 µM), an MIC [1, 3] of 16 µg/mL (≈ 18.6 µM) and an MIC [2, 4] of 0.13 µg/mL (≈ 0.151 µM).
For C[C@H](NC(=O)[C@@H]1Cc2ccc(O)c(c2)-c2cc(ccc2O)[C@H](N(C)C(=O)[C@H](CCCCN)NC(=O)c2ccc(-c3ccc(Cl)cc3)cc2)C(=O)N[C@@H](C)C(=O)N1)C(=O)CP(=O)(O)O [Compound 166], the MIC (MRSA COL (NRS100)) was 8 µg/mL (≈ 8.84 µM), the MIC ([1]; read-out: MIC (μg/mL) E. coli) was > 64 µg/mL and the MIC [2] was 32 µg/mL (≈ 35.3 µM).
COP(=O)(O)CC(=O)[C@H](C)NC(=O)[C@@H]1Cc2ccc(O)c(c2)-c2cc(ccc2O)[C@H](N(C)C(=O)[C@H](CCCCN)NC(=O)c2ccc(-c3ccc(Cl)cc3)cc2)C(=O)N[C@@H](C)C(=O)N1 [Compound 167] was tested, and the MIC (MRSA COL (NRS100)) was 4 µg/mL (≈ 4.35 µM), the MIC ([1]; read-out: MIC (μg/mL) E. coli) was > 64 µg/mL and the MIC [2] was 16 µg/mL (≈ 17.4 µM).
